According to patent publication US20090270371A1, “QUINOLINE DERIVATIVES USEFUL IN THE TREATMENT OF MGLUR5 RECEPTOR-MEDIATED DISORDERS” (priority 2005, published 2009):

Molecular target: T1, rat mGluR5 receptors (Rattus norvegicus, UniProt P31424)
T1 construct: rat cerebro-cortical membrane preparation was used; from tissue; host or cells: rat cerebral cortex membranes
Assay: mGluR5 receptor binding test, rat cerebro-cortical membrane preparation, [3H]-M-MPEP
Settings: affinity for rat mGluR5 receptors; [3H]-M-MPEP (2 nM) radioligand
Experimental: The mGluR5 receptor binding was determined according to the modified method of Gasparini et. al. (Bioorg. Med. Chem. Lett., 2000, 12, 407). Based on the high homology between the human and rat mGluR5 receptors, rat cerebro-cortical membrane preparation was used to determine the binding characteristics of the reference compounds and novel compounds to the rat mGluR5. The A18 cell line expressing hmGluR5a (purchased from Euroscreen) was used to determine binding characteristics of the chemical compounds to the human mGluR5a receptor. [^3H]-M-MPEP (2 nM) was used as radioligand. The nonspecific binding was determined in the presence of 10 μM M-MPEP.

T1 sequence (P31424 21-1203): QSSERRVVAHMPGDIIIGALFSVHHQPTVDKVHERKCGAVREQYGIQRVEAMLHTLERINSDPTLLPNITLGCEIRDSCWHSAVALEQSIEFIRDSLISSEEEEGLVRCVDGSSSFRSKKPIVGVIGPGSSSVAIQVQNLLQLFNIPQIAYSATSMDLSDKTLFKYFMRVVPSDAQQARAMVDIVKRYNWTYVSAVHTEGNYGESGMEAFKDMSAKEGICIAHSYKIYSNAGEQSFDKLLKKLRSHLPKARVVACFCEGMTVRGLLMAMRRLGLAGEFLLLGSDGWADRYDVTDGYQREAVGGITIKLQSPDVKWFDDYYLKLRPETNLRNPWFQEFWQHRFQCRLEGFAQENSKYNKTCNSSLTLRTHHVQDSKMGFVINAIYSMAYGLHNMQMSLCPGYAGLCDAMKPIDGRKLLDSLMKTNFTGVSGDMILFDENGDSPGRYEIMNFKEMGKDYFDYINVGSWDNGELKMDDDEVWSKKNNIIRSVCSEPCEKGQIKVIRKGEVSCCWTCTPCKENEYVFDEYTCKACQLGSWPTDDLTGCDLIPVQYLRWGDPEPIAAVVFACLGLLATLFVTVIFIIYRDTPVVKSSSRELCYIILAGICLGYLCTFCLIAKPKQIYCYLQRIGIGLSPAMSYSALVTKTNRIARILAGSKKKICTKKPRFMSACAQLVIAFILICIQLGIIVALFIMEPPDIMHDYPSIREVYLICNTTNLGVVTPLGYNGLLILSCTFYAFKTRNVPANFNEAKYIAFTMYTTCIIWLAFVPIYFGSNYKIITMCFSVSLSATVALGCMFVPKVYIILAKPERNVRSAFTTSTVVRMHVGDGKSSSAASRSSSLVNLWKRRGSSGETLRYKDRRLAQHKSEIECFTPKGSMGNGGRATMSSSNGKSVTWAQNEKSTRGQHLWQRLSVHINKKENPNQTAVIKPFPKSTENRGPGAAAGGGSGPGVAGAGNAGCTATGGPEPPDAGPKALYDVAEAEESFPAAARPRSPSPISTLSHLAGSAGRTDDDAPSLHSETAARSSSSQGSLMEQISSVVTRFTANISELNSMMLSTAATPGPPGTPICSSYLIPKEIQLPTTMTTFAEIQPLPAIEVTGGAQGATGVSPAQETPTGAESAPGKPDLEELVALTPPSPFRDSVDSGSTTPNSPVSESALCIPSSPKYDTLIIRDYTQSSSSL

Row | SMILES | Ki [µM]
1 | CCc1ccc2ncc(S(=O)(=O)c3ccc(C)cc3)c(N3CCCCC3)c2c1 [Compound 96] | > 0.5
2 | Cc1ccc(S(=O)(=O)c2cnc3ccccc3c2N2CCC3(CC2)OCCO3)cc1 [Compound 97] | > 0.5
3 | CCOC(=O)C1CCN(c2c(S(=O)(=O)c3ccc(C)cc3)cnc3ccc(OCC)cc23)CC1 [Compound 98] | > 0.5
4 | CCOC(=O)C1CCCN(c2c(S(=O)(=O)c3ccc(C)cc3)cnc3ccc(F)cc23)C1 (stereo not shown) [Compound 99] | > 0.5
5 | O=S(=O)(c1ccc(Cl)cc1)c1cnc2ccc(F)cc2c1N1CCN(Cc2ccccc2)CC1 [Compound 100] | > 0.5
6 | Cc1ccc(S(=O)(=O)c2cnc3ccccc3c2N2CCOCC2)cc1 [Compound 101] | > 0.5
7 | CCOc1ccc2ncc(S(=O)(=O)c3ccc(OC)cc3)c(N3CCC(C)CC3)c2c1 [Compound 102] | > 0.5
8 | COc1ccc2ncc(S(=O)(=O)c3ccc(C)cc3)c(NCc3ccc(F)cc3)c2c1 [Compound 103] | > 0.5
9 | Cc1ccc(S(=O)(=O)c2cnc3ccc(C)cc3c2N2CCOCC2)cc1 [Compound 104] | > 0.5
10 | CCc1ccc2ncc(S(=O)(=O)c3ccc(Cl)cc3)c(N3CCOCC3)c2c1 [Compound 105] | > 0.5
11 | COc1ccc2ncc(S(=O)(=O)c3ccc(Cl)cc3)c(N3CCN(Cc4ccccc4)CC3)c2c1 [Compound 106] | > 0.5
12 | O=S(=O)(c1ccccc1)c1cnc2ccc(F)cc2c1N1CCCCC1 [Compound 107] | > 0.5
13 | CC1CCN(c2c(S(=O)(=O)c3ccccc3)cnc3ccc(Cl)cc23)CC1 [Compound 108] | > 0.5
14 | COc1ccc2ncc(S(=O)(=O)c3ccccc3)c(N3CCC(C)CC3)c2c1 [Compound 109] | > 0.5
15 | CCN(CC)c1c(S(=O)(=O)c2ccc(C)cc2)cnc2ccc(OC)cc12 [Compound 110] | > 0.5
16 | COc1ccc2ncc(S(=O)(=O)c3ccccc3)c(N3CCN(Cc4ccccc4)CC3)c2c1 [Compound 111] | > 0.5
17 | COc1ccc2ncc(S(=O)(=O)c3ccc(Cl)cc3)c(N3CCCCCC3)c2c1 [Compound 112] | > 0.5
18 | COc1cccc(Nc2c(S(=O)(=O)c3ccc(C)cc3)cnc3ccccc23)c1 [Compound 113] | > 0.5
19 | CCOc1ccc2ncc(S(=O)(=O)c3ccc(C)cc3)c(N3CCC(C)CC3)c2c1 [Compound 114] | > 0.5
20 | O=S(=O)(c1ccccc1)c1cnc2cc3c(cc2c1N1CCN(c2ccccc2)CC1)OCCO3 [Compound 115] | > 0.5
21 | CCOc1ccc2ncc(S(=O)(=O)c3ccccc3)c(N3CCC(C)CC3)c2c1 [Compound 116] | > 0.5

Row | SMILES | Ki [µM]
22 | CCOc1ccc2ncc(S(=O)(=O)c3ccc(C)cc3)c(N3CCN(c4ccccc4F)CC3)c2c1 [Compound 117] | > 0.5
23 | O=S(=O)(c1ccccc1)c1cnc2ccc(F)cc2c1N1CCCCCC1 [Compound 118] | > 0.5
24 | CCOc1ccc2ncc(S(=O)(=O)c3ccc(C)cc3)c(N3CCCCCC3)c2c1 [Compound 119] | > 0.5
25 | O=S(=O)(c1ccc(Cl)cc1)c1cnc2ccc(F)cc2c1N1CCOCC1 [Compound 120] | > 0.5
26 | COc1ccc2ncc(S(=O)(=O)c3ccc(C)cc3)c(NCc3ccc(C)cc3)c2c1 [Compound 121] | > 0.5
27 | COc1ccc(S(=O)(=O)c2cnc3ccc(Cl)cc3c2NCc2ccc(C)cc2)cc1 [Compound 122] | > 0.5
28 | Cc1ccc2ncc(S(=O)(=O)c3ccc(Cl)cc3)c(N3CCN(c4ccccc4)CC3)c2c1 [Compound 123] | > 0.5
29 | CCN(CC)c1c(S(=O)(=O)c2ccccc2)cnc2ccc(F)cc12 [Compound 124] | > 0.5
30 | CCOc1ccc2ncc(S(=O)(=O)c3ccc(OC)cc3)c(N3CCOCC3)c2c1 [Compound 125] | > 0.5
31 | CCc1ccc2ncc(S(=O)(=O)c3ccc(OC)cc3)c(N3CCN(C)CC3)c2c1 [Compound 127] | > 0.5
32 | COc1ccc2ncc(S(=O)(=O)c3ccccc3)c(N3CCN(C)CC3)c2c1 [Compound 128] | > 0.5
33 | CCOC(=O)N1CCN(c2c(S(=O)(=O)c3ccc(Cl)cc3)cnc3ccccc23)CC1 [Compound 129] | > 0.5
34 | CCc1ccc2ncc(S(=O)(=O)c3ccc(C)cc3)c(NCc3ccc(F)cc3)c2c1 [Compound 130] | > 0.5
35 | CCOC(=O)N1CCN(c2c(S(=O)(=O)c3ccc(C)cc3)cnc3ccc(C)cc23)CC1 [Compound 132] | > 0.5
36 | CCN(CC)c1c(S(=O)(=O)c2ccc(Cl)cc2)cnc2ccc(F)cc12 [Compound 133] | > 0.5
37 | CCc1ccc2ncc(S(=O)(=O)c3ccc(OC)cc3)c(N3CCCCC3)c2c1 [Compound 134] | > 0.5
38 | O=S(=O)(c1ccccc1)c1cnc2cc3c(cc2c1N1CCCCC1)OCCO3 [Compound 135] | > 0.5
39 | CC1CCN(c2c(S(=O)(=O)c3ccccc3)cnc3ccc(F)cc23)CC1 [Compound 136] | > 0.5
40 | CC1CCN(c2c(S(=O)(=O)c3cc(F)cc(F)c3)cnc3ccc(F)cc23)CC1 [Compound 139] | > 0.5
41 | Cc1ccc2ncc(S(=O)(=O)c3cccc(C#N)c3)c(N3CCC(C)CC3)c2c1 [Compound 155] | > 0.5

Now from value to molecule:

Row | Ki [µM] | SMILES
42 | > 0.5 | Cc1ccc(S(=O)(=O)c2cnc3ccccc3c2N2CCN(Cc3ccccc3)CC2)cc1 [Compound 80]
43 | > 0.5 | CCOC(=O)C1CCN(c2c(S(=O)(=O)c3ccccc3)cnc3ccc(CC)cc23)CC1 [Compound 81]
44 | > 0.5 | O=S(=O)(c1ccccc1)c1cnc2cc3c(cc2c1N1CCCC1)OCCO3 [Compound 82]
45 | > 0.5 | CCc1ccc2ncc(S(=O)(=O)c3ccc(C)cc3)c(N(CC)CC)c2c1 [Compound 83]
46 | > 0.5 | CCc1ccc2ncc(S(=O)(=O)c3ccc(Cl)cc3)c(N(CC)CC)c2c1 [Compound 84]
47 | > 0.5 | CCc1ccc2ncc(S(=O)(=O)c3ccc(C)cc3)c(NCc3ccccc3)c2c1 [Compound 85]
48 | > 0.5 | Cc1ccc(S(=O)(=O)c2cnc3ccc(C)cc3c2N2CCCCCC2)cc1 [Compound 86]
49 | > 0.5 | COc1ccc2ncc(S(=O)(=O)c3ccc(C)cc3)c(NCc3ccccc3)c2c1 [Compound 87]
50 | > 0.5 | COc1ccc(S(=O)(=O)c2cnc3ccc(OC)cc3c2N2CCC(C)CC2)cc1 [Compound 88]
51 | 0.2 to 0.5 | O=S(=O)(c1ccccc1)c1cnc2ccccc2c1N1CCCCCC1 [Compound 89]
52 | > 0.5 | Cc1ccc2ncc(S(=O)(=O)c3ccccc3)c(N3CCN(Cc4ccccc4)CC3)c2c1 [Compound 90]
53 | > 0.5 | Cc1ccc(S(=O)(=O)c2cnc3cc4c(cc3c2N2CCC(C)CC2)OCCO4)cc1 [Compound 92]
54 | > 0.5 | Cc1ccc2ncc(S(=O)(=O)c3ccc(Cl)cc3)c(N3CCCCC3)c2c1 [Compound 93]
55 | > 0.5 | Cc1ccc(S(=O)(=O)c2cnc3cc4c(cc3c2N2CCOCC2)OCCO4)cc1 [Compound 94]
56 | > 0.5 | O=S(=O)(c1ccccc1)c1cnc2cc3c(cc2c1N1CCCCCC1)OCCO3 [Compound 95]
57 | 0.2 to 0.5 | CCOC(=O)N1CCN(c2c(S(=O)(=O)c3ccc(Cl)cc3)cnc3ccc(C)cc23)CC1 [Compound 131]
58 | < 0.2 | CC1CCN(c2c(S(=O)(=O)c3ccc(Cl)cc3)cnc3ccc(F)cc23)CC1 [Compound 137]
59 | 0.2 to 0.5 | CC1CCN(c2c(S(=O)(=O)c3cc(Cl)cc(Cl)c3)cnc3ccc(F)cc23)CC1 [Compound 138]
60 | < 0.2 | CC1CCN(c2c(S(=O)(=O)c3cccc(C#N)c3)cnc3ccc(F)cc23)CC1 [Compound 140]

Row | Ki [µM] | SMILES
61 | < 0.2 | CC1CCN(c2c(S(=O)(=O)c3ccc(F)cc3)cnc3ccc(F)cc23)CC1 [Compound 141]
62 | < 0.2 | COc1ccc(S(=O)(=O)c2cnc3ccc(F)cc3c2N2CCC(C)CC2)cc1 [Compound 142]
63 | 0.2 to 0.5 | COc1ccc(S(=O)(=O)c2cnc3ccc(F)cc3c2N2CCC(C)CC2)cc1OC [Compound 143]
64 | 0.2 to 0.5 | CC1CCN(c2c(S(=O)(=O)c3cccc(F)c3)cnc3ccc(F)cc23)CC1 [Compound 144]
65 | < 0.2 | COc1cccc(S(=O)(=O)c2cnc3ccc(F)cc3c2N2CCC(C)CC2)c1 [Compound 145]
66 | < 0.2 | Cc1ccc(S(=O)(=O)c2cnc3ccc(F)cc3c2N2CCC(C)CC2)cc1C [Compound 146]
67 | < 0.2 | COc1ccc(S(=O)(=O)c2cnc3ccc(F)cc3c2N2CCC(C)CC2)cc1Cl [Compound 147]
68 | < 0.2 | CC1CCN(c2c(S(=O)(=O)c3cccc(Cl)c3)cnc3ccc(F)cc23)CC1 [Compound 148]
69 | < 0.2 | CC1CCN(c2c(S(=O)(=O)c3ccc(Cl)c(Cl)c3)cnc3ccc(F)cc23)CC1 [Compound 149]
70 | 0.2 to 0.5 | CC1CCN(c2c(S(=O)(=O)c3ccc(C#N)cc3)cnc3ccc(F)cc23)CC1 [Compound 150]
71 | < 0.2 | Cc1cc(C)cc(S(=O)(=O)c2cnc3ccc(F)cc3c2N2CCC(C)CC2)c1 [Compound 151]
72 | < 0.2 | CC1CCN(c2c(S(=O)(=O)c3ccc(F)c(F)c3)cnc3ccc(F)cc23)CC1 [Compound 152]
73 | 0.2 to 0.5 | Cc1ccc2ncc(S(=O)(=O)c3cc(Cl)cc(Cl)c3)c(N3CCC(C)CC3)c2c1 [Compound 153]
74 | 0.2 to 0.5 | Cc1ccc2ncc(S(=O)(=O)c3cc(F)cc(F)c3)c(N3CCC(C)CC3)c2c1 [Compound 154]
75 | < 0.2 | Cc1ccc2ncc(S(=O)(=O)c3ccc(F)cc3)c(N3CCC(C)CC3)c2c1 [Compound 156]
76 | 0.2 to 0.5 | COc1ccc(S(=O)(=O)c2cnc3ccc(C)cc3c2N2CCC(C)CC2)cc1 [Compound 157]
77 | 0.2 to 0.5 | Cc1ccc2ncc(S(=O)(=O)c3ccc(Cl)cc3)c(N3CCC(C)CC3)c2c1 [Compound 158]
78 | < 0.2 | Cc1ccc2ncc(S(=O)(=O)c3cccc(F)c3)c(N3CCC(C)CC3)c2c1 [Compound 159]
79 | < 0.2 | COc1cccc(S(=O)(=O)c2cnc3ccc(C)cc3c2N2CCC(C)CC2)c1 [Compound 160]
